Data on eleven compounds can be found in US9394290B2, “Selective CYP11B1 inhibitors for the treatment of cortisol dependent diseases” (UNIVERSITAET DES SAARLANDES CAMPUS SAARBRUECKEN, priority 2010, dated 2016).

One test addresses human CYP11B2 (Homo sapiens (Human), UniProt P19099). Kind of test: Cellular assay for CYP11B2 inhibition (V79MZh11B2 hamster fibroblasts, substrate 11-deoxycorticosterone). The conditions noted are these: for pIC50: read-out: IC50 value CYP11B2, Hamster fibroblasts expressing human CYP11B2, 100 nM, mean of at least three experiments, n.i. = no inhibition at an inhibitor concentration of 500 nM.

Another test concerns the target human CYP17 (Homo sapiens (Human), UniProt P05093). Kind of test: CYP17 inhibition assay (membrane fraction of E. coli expressing human CYP17, substrate progesterone). The class given is biochemical. Conditions: 25 μM, inhibitor concentration 2.0 μM, read-out: inhibition (%) CYP 17. The protocol:
Recombinant E. coli pJL17/OR coexpressing human CYP17 and rat NADPH-P450-reductase were grown and stored as described by Ehmer et al. (J. Steroid Biochem. Mol. Biol., 2000, 75, 57-63)
For isolation of membrane fractions, 5 ml of bacterial suspension with an OD578 of 50 were washed using phosphate buffer (0.05 M, pH 7.4, 1 mM MgCl2, 0.1 mM EDTA and 0.1 mM dithiothreitol). Bacteria were harvested by centrifugation (2000×g) and the pellet was resuspended in 10 ml ice-cold TES buffer (0.1 M tris-acetate, pH 7.8, 0.5 mM EDTA, 0.5 M sucrose). Lysozyme was added with 10 ml of ice-cold water resulting in a concentration of 0.2 mg/ml followed by incubation for 30 min on ice with continuous shaking. Spheroplasts were harvested by centrifugation (12000×g, 10 min), and resuspended in 4 ml of ice-cold phosphate buffer (the same as described above plus 0.5 mM phenylmethylsulfonylfluoride (PMSF)).
After that spheroplasts were sonicated on ice (pulse 20 s on, 30 s off, five times), using a sonicator Sonopuls HD60 (Bandelin, Berlin, Germany) at maximum power. Unbroken cells and debris were pelleted at 3000×g for 7 min, and the supernatant was centrifuged at 50000×g for 20 min at 4° C. The membrane pellet was resuspended in 2 ml of phosphate buffer (the same as described above) with 20% glycerol using an ultra-turrax T25 (IKA-Labortechnik, Staufen, Germany). Protein concentration was determined by the method of Lowry.
The assay was performed as follows: a solution of 6.25 nmol progesterone (in 5 μl methanol) in 140 μl phosphate buffer (0.05 M, pH 7.4, 1 mM MgCl2, 0.1 mM EDTA and 0.1 mM dithiothreitol), 50 μl NADPH generating system (in phosphate buffer with 10 mM NADP, 100 mM glucose-6-phosphate and 2.5 units of glucose-6-phosphate-dehydrogenase) and inhibitor (in 5 μl DMSO) was pre-incubated at 37° C. for 5 min. Control cups were supplemented with 5 μl DMSO without inhibitor. The reaction was started by adding 50 μl of a 1:5 diluted membrane suspension in phosphate buffer (0.8-1.0 mg protein per ml). The maximum DMSO concentration in each sample was 2%. After mixing, incubation was performed for 30 min at 37° C. Subsequently the reaction was stopped with 50 μl 1 N HCl.
Extraction of the steroids was performed by addition of 1.0 ml ethyl acetate and vigorous shaking for 1 min. After a centrifugation step (5 min, 2500×g) the organic phase (0.9 ml) was transferred into a fresh cup containing 0.25 ml of incubation buffer and 50 μl 1 N HCl and mixed again. After centrifugation, 0.8 ml ethyl acetate solution was evaporated to dryness in a fresh cup. After that the steroids were redissolved in solvent for HPLC analysis (Hutschenreuter et. al. J. Enz. Inhib. Med. Chem. 2004, 19, 17-32).
The above experiment was conducted at least three times and a mean value for the CYP17 inhibition calculated.

For a further test, the target named is human CYP11B1 (Homo sapiens (Human), UniProt P15538). Kind of test: Cellular assay for CYP11B1 inhibition (V79MZh11B1 hamster fibroblasts, substrate 11-deoxycorticosterone). Conditions: for sf: selectivity factor: IC50 (CYP11B2)/IC50 (CYP11B1): ratio IC50 (CYP11B2)/IC50 (CYP11B1); for pIC50: read-out: IC50 value CYP11B1, Hamster fibroblasts expressing human CYP11B1, substrate 11-deoxycorticosterone, 100 nM, mean of at least three experiments.

Another test concerns the target Human placental CYP19 (Homo sapiens (Human), UniProt P11511). Kind of test: CYP19 (aromatase) assay, human placental microsomes, 3H2O release. Conditions: substrate androstenedione, 500 nM, inhibitor concentration 500 nM, read-out: inhibition (%) CYP 19. The format is biochemical. On the procedure:
The enzyme was obtained from the microsomal fraction of freshly delivered human term placental tissue according to the procedure of Thompson and Siiteri (Thompson, E. A.; Siiteri, P. K. J. Biol. Chem. 1974, 249, 5364).
The isolated microsomes were suspended in a minimum volume of phosphate buffer (0.05 M, pH 7.4, 20% glycerol). Additionally, DTT (dithiothreitol, 10 mM) and EDTA (1 mM) were added to protect the enzyme from degradation. The enzyme preparation was stored at −70° C.
The assay was performed monitoring enzyme activity by measuring the ^3H2O formed from [1β-^3H]androstenedione during aromatization (Hartmann et al. J. Med. Chem. 1986, 29, 1362-1369). […] The test compounds were dissolved in DMSO and diluted with buffer. The final DMSO concentration in the control and inhibitor incubation was 2%. Each tube was pre-incubated for 5 min at 30° C. in a water bath. Microsomal protein was added to start the reaction (0.1 mg). The total volume for each incubation was 0.25 ml. The reaction was terminated by the addition of 200 μl of a cold 1 mM HgCl2 solution. After addition of 200 μl of an aqueous dextran-coated charcoal (DCC) suspension (2%), the vials were shaken for 20 min and centrifuged at 1500×g for 5 min to separate the charcoal-absorbed steroids. The supernatant was assayed for ^3H2O by counting in a scintillation mixture using a β-counter. The calculation of the IC50 values was performed by plotting the percent inhibition vs. the concentration of inhibitor on a semi-log plot.
The above experiment was conducted at least three times and a mean value for the CYP19 inhibition calculated.

For orientation: inhibition means the drop in the measured response relative to a control, in per cent.

pIC50: −log10 of the molar value.

human CYP11B2, sequence (P19099 25-503): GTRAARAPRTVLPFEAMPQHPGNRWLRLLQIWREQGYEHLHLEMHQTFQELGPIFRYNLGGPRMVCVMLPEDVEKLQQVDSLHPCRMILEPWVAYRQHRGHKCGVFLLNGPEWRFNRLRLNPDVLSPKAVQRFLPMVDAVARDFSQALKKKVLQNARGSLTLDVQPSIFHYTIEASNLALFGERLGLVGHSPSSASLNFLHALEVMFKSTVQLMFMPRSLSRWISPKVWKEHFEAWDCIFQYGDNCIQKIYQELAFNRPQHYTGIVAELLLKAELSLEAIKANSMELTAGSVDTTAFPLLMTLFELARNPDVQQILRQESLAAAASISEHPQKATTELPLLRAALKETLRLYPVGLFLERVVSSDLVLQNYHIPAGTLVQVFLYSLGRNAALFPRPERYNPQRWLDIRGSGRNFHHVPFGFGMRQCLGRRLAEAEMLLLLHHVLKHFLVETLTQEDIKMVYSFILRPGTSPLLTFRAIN
Human placental CYP19, sequence (P11511 whole entry): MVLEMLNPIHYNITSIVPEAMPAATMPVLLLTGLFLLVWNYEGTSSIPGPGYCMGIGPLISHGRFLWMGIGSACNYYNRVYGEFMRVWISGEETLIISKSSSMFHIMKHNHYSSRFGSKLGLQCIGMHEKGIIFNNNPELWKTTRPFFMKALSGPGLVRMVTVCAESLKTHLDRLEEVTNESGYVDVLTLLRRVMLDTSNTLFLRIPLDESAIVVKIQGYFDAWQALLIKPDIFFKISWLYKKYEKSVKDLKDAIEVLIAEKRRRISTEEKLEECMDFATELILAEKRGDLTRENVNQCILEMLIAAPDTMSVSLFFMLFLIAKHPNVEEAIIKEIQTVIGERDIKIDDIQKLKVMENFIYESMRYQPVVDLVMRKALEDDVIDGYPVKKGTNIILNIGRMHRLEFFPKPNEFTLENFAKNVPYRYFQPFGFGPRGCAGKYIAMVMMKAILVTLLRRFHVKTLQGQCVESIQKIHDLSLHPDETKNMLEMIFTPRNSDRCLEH
human CYP11B1, sequence (P15538 25-503): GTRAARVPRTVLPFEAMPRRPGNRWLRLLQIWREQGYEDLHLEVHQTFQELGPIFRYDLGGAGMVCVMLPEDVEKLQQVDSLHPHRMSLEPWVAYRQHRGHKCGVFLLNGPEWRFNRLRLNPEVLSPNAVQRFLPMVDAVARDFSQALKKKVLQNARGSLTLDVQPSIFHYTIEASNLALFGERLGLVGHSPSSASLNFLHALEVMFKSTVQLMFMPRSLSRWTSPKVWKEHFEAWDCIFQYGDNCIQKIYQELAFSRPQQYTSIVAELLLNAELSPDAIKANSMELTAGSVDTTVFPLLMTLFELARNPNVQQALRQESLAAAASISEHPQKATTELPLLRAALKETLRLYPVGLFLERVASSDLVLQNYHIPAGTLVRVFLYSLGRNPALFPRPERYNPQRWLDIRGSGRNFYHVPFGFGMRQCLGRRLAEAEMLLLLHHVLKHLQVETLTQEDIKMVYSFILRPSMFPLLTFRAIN
human CYP17, sequence (P05093 whole entry): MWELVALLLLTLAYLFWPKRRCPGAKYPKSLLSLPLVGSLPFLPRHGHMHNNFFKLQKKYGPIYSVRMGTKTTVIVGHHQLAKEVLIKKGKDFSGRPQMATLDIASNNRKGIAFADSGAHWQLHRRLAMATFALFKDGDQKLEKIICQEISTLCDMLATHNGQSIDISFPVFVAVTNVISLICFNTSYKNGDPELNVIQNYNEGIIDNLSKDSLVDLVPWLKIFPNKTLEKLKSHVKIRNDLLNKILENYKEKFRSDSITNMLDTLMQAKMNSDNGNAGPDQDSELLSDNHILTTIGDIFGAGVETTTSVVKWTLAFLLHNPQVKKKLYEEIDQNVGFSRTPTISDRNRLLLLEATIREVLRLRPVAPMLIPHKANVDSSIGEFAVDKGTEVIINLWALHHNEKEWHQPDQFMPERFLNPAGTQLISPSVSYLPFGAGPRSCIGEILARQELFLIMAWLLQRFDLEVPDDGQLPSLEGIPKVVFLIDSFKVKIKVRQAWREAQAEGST

Take `Brc1ncccc1Cn1ccnc1` [Compound 5, 2-Bromo-3-imidazol-1-ylmethyl-pyridine]: the results for the pIC50 on human CYP11B2 and at human CYP11B1 were 6.04 and 7.21, respectively. Moreover, on human CYP17, the inhibition at 2 µM came to 3%. In addition, the “sf: selectivity factor: IC50 (CYP11B2)/IC50 (CYP11B1)” value (shortened to “sf: selectivity factor: IC50”) on human CYP11B1 worked out at 15. Moreover, at Human placental CYP19, the inhibition at 0.5 µM is 2%.

Regarding `Fc1ccccc1-c1ccc(Cn2ccnc2)cn1` [Compound 7, 2-(2-Fluoro-phenyl)-5-imidazol-1-ylmethyl-pyridine], the pIC50 at human CYP11B2 is 5.76. The inhibition at 2 µM on human CYP17 came out at 3%. At human CYP11B1, the “sf: selectivity factor: IC50” value turned out to be 24 and the pIC50 was 7.14. For the same compound, the inhibition at 0.5 µM at Human placental CYP19 came out at 0%.

Consider `Oc1ccc(-c2ccc(Cn3ccnc3)cn2)cc1F` [Compound 11, 2-Fluoro-4-(5-imidazol-1-ylmethyl-pyridin-2-yl)-phenol], for which the values for the pIC50 at human CYP11B2 and on human CYP11B1 were 6.63 and 7.77, respectively. Further, the inhibition at 2 µM at human CYP17 was 2.6%. Besides, the “sf: selectivity factor: IC50” value at human CYP11B1 came out at 14. Besides, the inhibition at 0.5 µM on Human placental CYP19 came to 0%.

In the case of `COc1ccccc1-c1ccc(Cn2ccnc2)cn1` [Compound 12, 5-Imidazol-1-ylmethyl-2-(2-methoxy-phenyl)pyridine], the pIC50 on human CYP11B2 is 5.36. The inhibition at 2 µM at human CYP17 was determined as 5%. In addition, on human CYP11B1, the “sf: selectivity factor: IC50” value was found to be 26 and the pIC50 is 6.78. Also, at Human placental CYP19, the inhibition at 0.5 µM came to 4%.

For `Nc1ccccc1-c1ccc(Cn2ccnc2)cn1` [Compound 15, 2-(5-Imidazol-1-ylmethyl-pyridin-2-yl)-phenylamine], on human CYP11B2, the pIC50 was 5.67. The inhibition at 2 µM at human CYP17 is 6%. Besides, at human CYP11B1, the “sf: selectivity factor: IC50” value turned out to be 21 and the pIC50 was 7.00. Also, the inhibition at 0.5 µM on Human placental CYP19 was determined as 0%.

Regarding `Nc1cccc(-c2ccc(Cn3ccnc3)cn2)c1` [Compound 16, 3-(5-Imidazol-1-ylmethyl-pyridin-2-yl)-phenylamine], at human CYP11B2, the pIC50 was 5.47. In addition, the inhibition at 2 µM at human CYP17 was determined as 3%. At human CYP11B1, the “sf: selectivity factor: IC50” value is recorded as 31 and the pIC50 was 6.96. Further, the inhibition at 0.5 µM on Human placental CYP19 turned out to be 2%.

As for `Nc1ccc(-c2ccc(Cn3ccnc3)cn2)cc1` [Compound 17, 4-(5-Imidazol-1-ylmethyl-pyridin-2-yl)-phenylamine], the pIC50 at human CYP11B2 was 6.28. The inhibition at 2 µM on human CYP17 turned out to be 4%. Also, at human CYP11B1, the “sf: selectivity factor: IC50” value is recorded as 5 and the pIC50 was 6.97. The inhibition at 0.5 µM on Human placental CYP19 is 1%.

As for `Cc1ccc(-c2ccc(Cn3ccnc3)cn2)cc1N` [Compound 18, 5-(5-Imidazol-1-ylmethyl-pyridin-2-yl)-2-methyl-phenylamine], the results for the pIC50 at human CYP11B2 and at human CYP11B1 were under 6.00 and 6.27, respectively. Further, the inhibition at 2 µM on human CYP17 stood at 3%. Also, the inhibition at 0.5 µM on Human placental CYP19 is 0%.

For `c1ccc(N(c2ccccc2)c2ccc(-c3ccc(Cn4ccnc4)cn3)cc2)cc1` [Compound 22, [4-(5-Imidazol-1-ylmethyl-pyridin-2-yl)-phenyl]-diphenyl-amine], at human CYP11B2 (Hamster fibroblasts expressing human CYP11B2, 100 nM, mean of at least three experiments, n.i. = no inhibition at an inhibitor concentration of 500 nM), the “IC50 value CYP11B2” value is “n.i.^d”. Also, the inhibition at 2 µM at human CYP17 is 2%. In addition, on human CYP11B1, the pIC50 was 6.21. The inhibition at 0.5 µM on Human placental CYP19 stood at 1%.

Take `c1ccc2c(-c3ccc(Cn4ccnc4)cn3)cccc2c1` [Compound 23, 5-Imidazol-1-ylmethyl-2-naphthalen-1-yl-pyridine]: the pIC50 at human CYP11B2 is 5.68; on human CYP11B1, 7.38. Moreover, the inhibition at 2 µM at human CYP17 was found to be 8%. Moreover, at human CYP11B1, the “sf: selectivity factor: IC50” value stood at 49. Besides, the inhibition at 0.5 µM on Human placental CYP19 is 5%.

For `c1ccc(-c2cc(Cn3ccnc3)cnc2-c2ccccc2)cc1` [Compound 25, 5-Imidazol-1-ylmethyl-2,3-diphenyl-pyridine], on human CYP11B2, the pIC50 is 6.07. Moreover, the inhibition at 2 µM at human CYP17 was 3%. Moreover, at human CYP11B1, the “sf: selectivity factor: IC50” value is 2.4 and the pIC50 was 6.44. For the same compound, at Human placental CYP19, the inhibition at 0.5 µM was determined as 0%.
